The numbers were not newly measured in PMC5260004, “Permeability across a novel microfluidic blood-tumor barrier model” (Fluids and Barriers of the CNS, 2017), which cites them from elsewhere.

In the data set the test system is P-gp. On the set-up: method as in PMID 23916719. The note with it: in vivo, rhodamine 123 and an inhibitor of P-gp administered concurrently.

On to `COC(=O)c1ccccc1-c1c2ccc(=N)cc-2oc2cc(N)ccc12` [Rho123, Rhodamine 123], for which the “fold higher dye accumulation in brain with P-gp inhibitor than in the absence of efflux inhibition” value is reported as 10- to 12 fold.
